According to paper PMC8881573, “Inhibition of SRP-dependent protein secretion by the bacterial alarmone (p)ppGpp” (Nature Communications, 2022):

Tests used:
[1] = target: T1, full-length (Ec)Ffh and (Ec)FtsY-NG (Escherichia coli, UniProt P0AGD7+P10121); assay: GTPase activity (GTP hydrolysis, HPLC); type: biochemical, E. coli; details: alarmone at concentrations equimolar to the GTP substrate (1 mM) or higher; with or without 4.5S RNA, ΔEspP signal peptide, C12E8
T1 construct: GTPase activity of full-length (Ec)Ffh and the NG domain of (Ec)FtsY was assayed; His-tag; His6 (C); made in house; host or cells: E. coli BL21 (DE3)
Method: GTPase activity of full-length (Ec)Ffh and the NG domain of (Ec)FtsY was assayed in a buffer containing 25 mM HEPES-K pH 7.5, 10 mM Mg(OAc)2, 300 mM K(OAc), 1 mM DTT, and 2.5% (v/v) glycerol. The samples contained 5 µM (Ec)Ffh, 5 µM (Ec)FtsY-NG, 6 µM 4.5S RNA, 5 µM ΔEspP (EspP signal peptide sequence: MKK HKR ILA LCF LGL LQS SYS WAK KKK, custom synthesized from Genosphere Biotechnologies (France)[40], and 100 µM C12E8 (octaethylenglykol-monododecylether, Sigma Aldrich)[40] as indicated in figures. Alarmones ppGpp (Jena Bioscience, ≥95% purity) or pppGpp (Jena Bioscience, ≥85% purity) were supplemented in concentrations of 10, 25, 100, 250, 1000, 2500, or 10,000 µM as indicated in the figures. The enzymatic reactions were initiated by the addition of 1 mM GTP (Jena Bioscience, ≥99% purity) and allowed to proceed for 60 min at 37 °C, after which 40 µL double-distilled water were added immediately followed by 150 µL of chloroform. […] The nucleotide content was determined by high-performance liquid chromatography (HPLC) on an Agilent 1260 Infinity system (software: ChemStation Rev. B04.03-SP1) equipped with a Metrosep A Supp 5–150/4.0 column (Metrohm). Ten microliters of sample were injected and nucleotides eluted isocratically at 0.6 mL min^−1 flow rate of 100 mM (NH4)2CO3 pH 9.25 and detected at 260 nm wavelength. […]

[2] = target: T2, Ffh-NG/FtsY-NG complex (Escherichia coli, UniProt P0AGD7+P10121, DEL297-453); assay: Analytical size-exclusion chromatography of GMPPNP-dependent Ffh/FtsY complex formation; type: biochemical, E. coli; details: 0.25, 0.5 or 1 mM GMPPNP
T2 construct: purified NG domains of (Ec)FtsY and (Ec)Ffh were diluted; His6 (C); made in house; host or cells: E. coli BL21 (DE3)
Method: For the analytical SEC, purified NG domains of (Ec)FtsY and (Ec)Ffh were diluted in a buffer containing 20 mM HEPES (pH 7.5), 200 mM NaCl, 20 mM MgCl2 and 20 mM KCl to a final concentration of 100 µM (Fig. 3g) and 50 µM (Fig. 3h, i) each. Indicated amounts of nucleotides were added simultaneously, and the solution was incubated for 30 min at room temperature. 100 µL were then injected at 4 °C on to a pre-equilibrated S200 300/10 GL analytical size-exclusion column (GE Healthcare, München, Germany) on an Äkta system (UNICORN 7.6; Cytiva). Data has been plotted using GraphPad Prism (GraphPad Prism Corp. San Diego).

[3] = target: T3, (Ec)FtsY-NG (Escherichia coli, UniProt P10121); assay: Microscale thermophoresis (MST) ligand binding; set-up: species or system E. coli; details: NG domain labeled with NT 647, 21 °C; read-out: (Ec)FtsY KD MST
T3 construct: purified NG domains of (Ec)Ffh, (Ec)FtsY and (Bs)Ffh; His6 (C); made in house; host or cells: E. coli BL21 (DE3)
Method: (§1) Ligand binding assays with purified NG domains of (Ec)Ffh, (Ec)FtsY and (Bs)Ffh proteins were carried out by microscale thermophoresis (MST)[80]. All experiments were performed on a Monolith NT.115 (NanoTemper Technologies GmbH, Munich, Germany; software: NanoTemper Control Version 2.0.2.29) at 21 °C (red LED power was set to 50–100% and infrared laser power to 75%). After labeling of primary amines within (Ec)Ffh, (Ec)FtsY, and (Bs)Ffh (50 µM each) with the dye NT 647 (according to the manufacturers protocol), the proteins were re-buffered in SEC buffer containing 20 mM HEPES-Na, 20 mM KCl, 20 mM MgCl2, 200 mM NaCl (final pH 7.5), 10 mg ml^−1 BSA and 0.007% Tween. Two-hundred nanomolar of (Ec)Ffh, (Ec)FtsY, and (Bs)Ffh were titrated with GDP, GTP, ppGpp, and pppGpp starting from a concentration ranging between 0.75 and 3 mM, respectively. At least six independent MST experiments per ligand and protein were recorded at 680 nm and analyzed using NanoTemper Analysis version 1.5.37 and 1.2.009, and Origin8G software suits.

[4] = target: T4, (Ec)Ffh-NG (Escherichia coli, UniProt P0AGD7); assay: Microscale thermophoresis (MST) ligand binding; set-up: species or system E. coli; details: NG domain labeled with NT 647, 21 °C
T4 construct: purified NG domains of (Ec)Ffh, (Ec)FtsY and (Bs)Ffh; His6 (C); made in house; host or cells: E. coli BL21 (DE3)
Method: as §1

[5] = target: T4, (Ec)Ffh-NG; assay: Isothermal titration calorimetry (ITC) of nucleotide binding; set-up: species or system E. coli
Method: Ligands and proteins (purified NG domains of (Ec)Ffh, (Ec)FtsY and (Bs)Ffh) were diluted with a buffer containing 20 mM HEPES-Na (pH 7.5), 200 mM NaCl, 20 mM MgCl2 and 20 mM KCl. The NG domains of (Ec)Ffh, (Ec)FtsY and (Bs)Ffh were titrated in the sample-cell at a nominal concentration of 25 µM each. The nucleotides GDP, GTP, ppGpp and pppGpp (Jena Bioscience, Germany) were placed in the syringe and their concentrations were predetermined by absorbance at 252 nm to saturate the protein samples during the titrations. All the measurements were performed at 25 °C with the instrument MicroCal PEAQ-ITC (©Malvern Panalytical) with a method consisting of 13 injections (first 0.4 µL, and the rest 3 µL each) and 150 s of spacing. The raw data (see source) were processed with the MicroCal PEAQ-ITC Analysis Software (©Malvern Panalytical) using the “one set of sites” models.

[6] = (p)ppGpp concentrations exceeding those of GMPPNP by two-fold
[7] = at equal (p)ppGpp/GMPPNP ratios

T2 sequence (P0AGD7 1-296, stated change not applied): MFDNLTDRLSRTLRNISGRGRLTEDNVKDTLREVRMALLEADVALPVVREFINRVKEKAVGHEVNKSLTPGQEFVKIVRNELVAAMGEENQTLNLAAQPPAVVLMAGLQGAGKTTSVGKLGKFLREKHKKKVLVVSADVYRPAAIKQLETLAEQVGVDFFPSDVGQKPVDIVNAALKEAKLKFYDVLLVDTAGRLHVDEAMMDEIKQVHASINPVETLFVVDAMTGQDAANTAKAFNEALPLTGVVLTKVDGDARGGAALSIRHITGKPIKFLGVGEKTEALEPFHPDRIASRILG
T2 sequence (P10121 197-497, stated change not applied): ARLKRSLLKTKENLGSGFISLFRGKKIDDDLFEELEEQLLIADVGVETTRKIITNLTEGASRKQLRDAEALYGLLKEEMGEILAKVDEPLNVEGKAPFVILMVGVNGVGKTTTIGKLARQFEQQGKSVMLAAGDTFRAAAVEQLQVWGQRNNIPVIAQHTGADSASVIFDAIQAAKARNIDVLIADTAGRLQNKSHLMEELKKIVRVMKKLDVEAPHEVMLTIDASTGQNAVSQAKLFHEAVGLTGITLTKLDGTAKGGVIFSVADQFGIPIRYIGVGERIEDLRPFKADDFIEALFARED
T4 sequence (P0AGD7 1-296): as the sequence (P0AGD7 1-296, stated change not applied) above
T3 sequence (P10121 197-497): as the sequence (P10121 197-497, stated change not applied) above
T1 sequence (P0AGD7 whole entry, the tested form may be a part): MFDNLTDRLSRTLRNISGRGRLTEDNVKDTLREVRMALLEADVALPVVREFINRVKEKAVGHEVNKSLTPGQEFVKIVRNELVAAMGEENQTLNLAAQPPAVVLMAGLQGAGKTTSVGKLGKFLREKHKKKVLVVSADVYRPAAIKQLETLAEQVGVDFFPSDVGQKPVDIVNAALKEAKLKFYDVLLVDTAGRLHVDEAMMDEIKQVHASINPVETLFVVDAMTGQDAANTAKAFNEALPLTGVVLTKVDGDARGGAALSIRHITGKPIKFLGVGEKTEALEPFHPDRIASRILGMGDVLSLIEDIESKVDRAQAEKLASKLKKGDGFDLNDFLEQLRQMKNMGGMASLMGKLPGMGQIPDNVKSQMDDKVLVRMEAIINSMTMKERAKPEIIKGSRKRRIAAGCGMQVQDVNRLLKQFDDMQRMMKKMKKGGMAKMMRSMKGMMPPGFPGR
T1 sequence (P10121 197-497): as the sequence (P10121 197-497, stated change not applied) above

SMILES	GTP hydrolysis [1]	Ffh/FtsY complex formation [2, 6]	Ffh/FtsY complex formation [2, 7]	Kd [3] [µM]	Kd [4] [µM]	Kd [5] [µM]
Nc1nc2c(ncn2[C@@H]2O[C@H](COP(=O)(O)OP(=O)(O)O)[C@@H](OP(=O)(O)OP(=O)(O)O)[C@H]2O)c(=O)[nH]1 [ppGpp]	reduction of GTP hydrolysis	roughly abolished	half-inhibited	30	13.5	7.9 ± 1.9
Nc1nc2c(ncn2[C@@H]2O[C@H](COP(=O)(O)OP(=O)(O)OP(=O)(O)O)[C@@H](OP(=O)(O)OP(=O)(O)O)[C@H]2O)c(=O)[nH]1 [pppGpp]	reduction of GTP hydrolysis	roughly abolished	half-inhibited	66.6	68.3	13.9 ± 7.1
